Reference: patent publication US20210120813A1, “INHIBITORS OF THE SHIKIMATE PATHWAY” (PEPTICOM LTD., priority 2018, published 2021)
“And” between values parts separate entries of the source, which are not always exact repeats. Identical values can stand only once. “Also recorded” adds a separate entry of the source. Like-named read-outs stand apart in the source and are kept apart here.

Tests used:
[1] = test system: EPSPS (TIPS mutant) from common wheat; type: cell-based, Triticum Aestivum
[2] = test system: EPSPS (wild type) from common wheat; type: cell-based, Triticum Aestivum; settings: for ability of rescued AB2829 bacteria cells (wild type EPSPS) to grow on M9 minimal media: 40 h, 0.1% rhamnose
[3] = test system: EPSPS (TIPS mutant) from common wheat; type: cell-based, Triticum Aestivum; remark: listed apart in the source
WT EPSPS = WT EPSPS (Triticum aestivum, UniProt B5M6A1); experiment: In-vitro kinetics of EPSPS enzymatic activity (Malachite green phosphate release), WT; type: biochemical; settings: apparent Km increases, Vmax unaffected; glyphosate vs PEP, compound 4 vs S3P
WT EPSPS, sequence (B5M6A1 66-510 limits assumed): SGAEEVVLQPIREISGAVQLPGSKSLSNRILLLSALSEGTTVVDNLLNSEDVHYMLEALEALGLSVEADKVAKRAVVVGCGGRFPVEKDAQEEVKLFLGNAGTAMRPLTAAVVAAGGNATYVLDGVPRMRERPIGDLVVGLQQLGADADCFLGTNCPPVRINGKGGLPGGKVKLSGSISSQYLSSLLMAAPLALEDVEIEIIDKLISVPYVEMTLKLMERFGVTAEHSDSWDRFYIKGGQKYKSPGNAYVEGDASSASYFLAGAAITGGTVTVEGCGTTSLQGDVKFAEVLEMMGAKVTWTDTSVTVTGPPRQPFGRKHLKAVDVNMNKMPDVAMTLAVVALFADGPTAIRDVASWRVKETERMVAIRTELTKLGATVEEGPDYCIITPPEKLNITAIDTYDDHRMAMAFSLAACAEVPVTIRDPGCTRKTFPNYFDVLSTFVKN

TIPS EPSPS = TIPS EPSPS (Triticum aestivum, UniProt B5M6A1, P172S/T168I); type: biochemical; settings: for effect of the TIPS mutation on inhibition of EPSPS activity (IC50 WT vs TIPS): WT vs TIPS EPSPS enzyme
TIPS EPSPS, sequence (B5M6A1 66-510 P172S/T168I limits assumed): as the sequence (B5M6A1 66-510 limits assumed) above, with T103I, P107S counted along it

[4] = test system: Chenopodium album (CHEAL); experiment: Weed efficacy on petri dishes, germination and visual notation, CHEAL; type: in vivo; settings: for CHEAL Visual notation Mean: scale 0 = as control to 100
[5] = test system: Lolium multiflorum (LOLMU); experiment: Weed efficacy on petri dishes, germination and visual notation, LOLMU; type: in vivo; settings: for LOLMU Visual notation Mean: scale 0 = as control to 100

SMILES: COC(=O)c1cc([N+](=O)[O-])cc([N+](=O)[O-])c1 [Compound 12, 3,5-Dinitrobenzoic acid methyl ester]
- % bacterial growth relative to rescue with mutant EPSPS at 20 mM, 40 h post application [1]: −29%
- ability of rescued AB2829 bacteria cells (EPSPS TIPS) to grow on M9 minimal media [1]: completely abolish
- ability of rescued AB2829 bacteria cells (wild type EPSPS) to grow on M9 minimal media ([2]; 5 mM): completely abolish

SMILES: O=C(O)c1cc([N+](=O)[O-])cc(C(F)(F)F)c1 [Compound 15, 3-Nitro-5-(trifluoromethyl) benzoic acid]
- % bacterial growth relative to rescue with mutant EPSPS at 20 mM, 40 h post application [1]: −118%
- ability of rescued AB2829 bacteria cells (EPSPS TIPS) to grow on M9 minimal media ([1]; 20 mM, 40 h, 0.1% rhamnose): completely abolish
- % bacterial growth relative to rescue with wild type EPSPS at 5 mM, 40 h post application [2]: −177%
- growth with gradually increasing rhamnose (EPSPS TIPS titration) ([3]; 0.6 mM, rhamnose 0%-0.4%, 60 h): facilitates growth in a gradual manner

SMILES: O=C(O)CNCP(=O)(O)O [Glyphosate, N-(phosphonomethyl)glycine, reference compound]
- % bacterial growth relative to rescue with mutant EPSPS at 20 mM, 40 h post application [1]: +127% (+/−37%)
- ability of rescued AB2829 bacteria cells (EPSPS TIPS) to grow on M9 minimal media ([1]; 20 mM, 40 h, 0.1% rhamnose): TIPS mutant is indifferent to glyphosate; also recorded: facilitates growth
- % bacterial growth relative to rescue with wild type EPSPS, 40 h post application [2]: +6.0% (0.7 mM) −46% (1.5 mM)
- ability of rescued AB2829 bacteria cells (wild type EPSPS) to grow on M9 minimal media ([2]; 0.7 mM): could not facilitates growth
- ability of rescued AB2829 bacteria cells (wild type EPSPS) to grow on M9 minimal media ([2]; 1.5 mM): could not facilitates growth
- growth with gradually increasing rhamnose (EPSPS TIPS titration) [3]: facilitates growth in a gradual manner
- mode of EPSPS inhibition (Michaelis-Menten and Lineweaver-Burk plots) (WT EPSPS): competitive inhibitor
- effect of the TIPS mutation on inhibition of EPSPS activity (IC50 WT vs TIPS) (TIPS EPSPS): 3 orders of magnitude stronger

SMILES: O=C(O)c1cccc(O)c1O [Compound 3, 2,3-Dihydroxybenzoic acid]
- % bacterial growth relative to rescue with mutant EPSPS at 20 mM, 40 h post application [1]: −105%
- ability of rescued AB2829 bacteria cells (EPSPS TIPS) to grow on M9 minimal media ([1]; 20 mM, 40 h, 0.1% rhamnose): completely abolish
- % bacterial growth relative to rescue with wild type EPSPS at 5 mM, 40 h post application [2]: 54%
- ability of rescued AB2829 bacteria cells (wild type EPSPS) to grow on M9 minimal media ([2]; 5 mM): completely abolish
- growth with gradually increasing rhamnose (EPSPS TIPS titration) ([3]; 2.5 mM, rhamnose 0%-0.4%, 60 h): facilitates growth in a gradual manner

SMILES: COc1c(C(=O)O)ccc([N+](=O)[O-])c1O [Compound 1, 3-Hydroxy-2-methoxy-4-nitrobenzoic acid]
- % bacterial growth relative to rescue with mutant EPSPS at 20 mM, 40 h post application [1]: −79%
- ability of rescued AB2829 bacteria cells (EPSPS TIPS) to grow on M9 minimal media ([1]; 20 mM, 40 h, 0.1% rhamnose): completely abolish
- % bacterial growth relative to rescue with wild type EPSPS at 5 mM, 40 h post application [2]: −15%
- ability of rescued AB2829 bacteria cells (wild type EPSPS) to grow on M9 minimal media ([2]; 5 mM): completely abolish

SMILES: COc1ccc(C(=O)O)cc1O [Compound 2, 3-Hydroxy-4-methoxybenzoic acid]
- % bacterial growth relative to rescue with mutant EPSPS at 20 mM, 40 h post application [1]: −25%
- ability of rescued AB2829 bacteria cells (EPSPS TIPS) to grow on M9 minimal media ([1]; 20 mM, 40 h, 0.1% rhamnose): completely abolish
- % bacterial growth relative to rescue with wild type EPSPS at 5 mM, 40 h post application [2]: 27%
- ability of rescued AB2829 bacteria cells (wild type EPSPS) to grow on M9 minimal media ([2]; 5 mM): completely abolish

SMILES: O=C(O)c1cc([N+](=O)[O-])c(F)c(C(F)(F)F)c1 [Compound 14, 4-Fluoro-3-nitro-5-(trifluoromethyl)benzoic acid]
- % bacterial growth relative to rescue with mutant EPSPS at 20 mM, 40 h post application [1]: −142%
- ability of rescued AB2829 bacteria cells (EPSPS TIPS) to grow on M9 minimal media ([1]; 20 mM, 40 h, 0.1% rhamnose): completely abolish

SMILES: O=C(O)c1cc([N+](=O)[O-])cc([N+](=O)[O-])c1O [Compound 6, 2-Hydroxy-3,5-dinitrobenzoic acid]
- % bacterial growth relative to rescue with mutant EPSPS at 20 mM, 40 h post application [1]: −285%
- ability of rescued AB2829 bacteria cells (EPSPS TIPS) to grow on M9 minimal media [1]: completely abolish

SMILES: Nc1cc(O)c([N+](=O)[O-])cc1C(=O)O [Compound 4, 2-Amino-4-hydroxy-5-nitrobenzoic acid]
- % bacterial growth relative to rescue with mutant EPSPS at 20 mM, 40 h post application [1]: −94%
- ability of rescued AB2829 bacteria cells (EPSPS TIPS) to grow on M9 minimal media ([1]; 20 mM, 40 h, 0.1% rhamnose): completely abolish
- % bacterial growth relative to rescue with wild type EPSPS at 5 mM, 40 h post application [2]: −87%
- ability of rescued AB2829 bacteria cells (wild type EPSPS) to grow on M9 minimal media ([2]; 5 mM): completely abolish
- growth with gradually increasing rhamnose (EPSPS TIPS titration) ([3]; 1.0 mM, rhamnose 0%-0.4%, 60 h): facilitates growth in a gradual manner
- mode of EPSPS inhibition (Michaelis-Menten and Lineweaver-Burk plots) (WT EPSPS): competitive inhibitor
- inhibition of the TIPS mutant relative to glyphosate (TIPS EPSPS; IC50 comparison, TIPS EPSPS enzyme): one order of magnitude better
- effect of the TIPS mutation on inhibition of EPSPS activity (IC50 WT vs TIPS) (TIPS EPSPS): hardly affected

SMILES: O=C1NC(=O)c2c1ccc(O)c2O [Compound 13, 4,5-Dihydroxyisoindoline-1,3-dione]
- % bacterial growth relative to rescue with mutant EPSPS at 20 mM, 40 h post application [1]: −31%
- ability of rescued AB2829 bacteria cells (EPSPS TIPS) to grow on M9 minimal media ([1]; 20 mM, 40 h, 0.1% rhamnose): completely abolish
- % bacterial growth relative to rescue with wild type EPSPS at 5 mM, 40 h post application [2]: −20%
- ability of rescued AB2829 bacteria cells (wild type EPSPS) to grow on M9 minimal media ([2]; 5 mM): completely abolish
- growth with gradually increasing rhamnose (EPSPS TIPS titration) ([3]; 0.25 mM, rhamnose 0%-0.4%, 60 h): could not facilitates growth in a gradual manner
- rescue of growth phenotype by titration of EPSPS TIPS intracellular levels ([3]; single inhibitory dose, rhamnose 0.0%-0.4%): couldn't rescue the growth phenotype

SMILES: O=C(O)c1cc([N+](=O)[O-])cc([N+](=O)[O-])c1 [Compound 11, 3,5-Dinitrobenzoic acid]
- % bacterial growth relative to rescue with mutant EPSPS at 20 mM, 40 h post application [1]: −27%
- ability of rescued AB2829 bacteria cells (EPSPS TIPS) to grow on M9 minimal media [1]: completely abolish
- ability of rescued AB2829 bacteria cells (wild type EPSPS) to grow on M9 minimal media ([2]; 5 mM): completely abolish
- % bacterial growth relative to rescue with wild type EPSPS at 5 mM, 40 h post application ([2]; 5 mM, 40 h post application, OD600, EPSPS null = 0%, Rescue = 100%): −38%
- growth with gradually increasing rhamnose (EPSPS TIPS titration) [3]: facilitates growth in a gradual manner
- CHEAL Germination (%) Mean ([4]; in vivo): 73.3% and 66.1% and 37.6%
- LOLMU Germination (%) Mean ([5]; in vivo): 82.2% and 95.6%

SMILES: CNc1ccc([N+](=O)[O-])cc1C(=O)O [Compound 8, -(Methylamino)-5-nitrobenzoic acid]
- % bacterial growth relative to rescue with mutant EPSPS at 20 mM, 40 h post application [1]: −272%
- ability of rescued AB2829 bacteria cells (EPSPS TIPS) to grow on M9 minimal media ([1]; 20 mM, 40 h, 0.1% rhamnose): completely abolish
- CHEAL Germination (%) Mean ([4]; 50 mg a.i./L, 10 DAT): 90.0%
- CHEAL Visual notation Mean ([4]; 50 mg a.i./L, 10 DAT): 21.8
- CHEAL Germination (%) Mean ([4]; 500 mg a.i./L, 10 DAT): 55.0%
- CHEAL Visual notation Mean ([4]; 500 mg a.i./L, 10 DAT): 83.8
- CHEAL Germination (%) Mean ([4]; 5000 mg a.i./L, 10 DAT): 34.5%
- CHEAL Visual notation Mean ([4]; 5000 mg a.i./L, 10 DAT): 95.0
- LOLMU Germination (%) Mean ([5]; 50 mg a.i./L, 10 DAT): 93.2%
- LOLMU Visual notation Mean ([5]; 50 mg a.i./L, 10 DAT): 3.5
- LOLMU Germination (%) Mean ([5]; 500 mg a.i./L, 10 DAT): 91.1%
- LOLMU Visual notation Mean ([5]; 500 mg a.i./L, 10 DAT): 6.6
- LOLMU Germination (%) Mean ([5]; 5000 mg a.i./L, 10 DAT): 30.4%
- LOLMU Visual notation Mean ([5]; 5000 mg a.i./L, 10 DAT): 64.8

SMILES: O=C(O)c1cccc(C(=O)O)c1O [Compound 5, 2-Hydroxy-1,3-benzenedicarboxylic acid]
- % bacterial growth relative to rescue with mutant EPSPS at 20 mM, 40 h post application [1]: −220%
- ability of rescued AB2829 bacteria cells (EPSPS TIPS) to grow on M9 minimal media ([1]; 20 mM, 40 h, 0.1% rhamnose): completely abolish

SMILES: O=C(O)c1ccc(O)c([N+](=O)[O-])c1 [Compound 10, 4-Hydroxy-3-nitrobenzoic acid]
- % bacterial growth relative to rescue with mutant EPSPS at 20 mM, 40 h post application [1]: −21%
- ability of rescued AB2829 bacteria cells (EPSPS TIPS) to grow on M9 minimal media ([1]; 20 mM, 40 h, 0.1% rhamnose): completely abolish
- % bacterial growth relative to rescue with wild type EPSPS at 5 mM, 40 h post application [2]: −61%
- ability of rescued AB2829 bacteria cells (wild type EPSPS) to grow on M9 minimal media ([2]; 5 mM): completely abolish
- growth with gradually increasing rhamnose (EPSPS TIPS titration) ([3]; 0.4 mM, rhamnose 0%-0.4%, 60 h): facilitates growth in a gradual manner
- CHEAL Germination (%) Mean ([4]; 50 mg a.i./L, 10 DAT): 68.8%
- CHEAL Visual notation Mean ([4]; 50 mg a.i./L, 10 DAT): 52.4
- CHEAL Germination (%) Mean ([4]; 500 mg a.i./L, 10 DAT): 81.7%
- CHEAL Visual notation Mean ([4]; 500 mg a.i./L, 10 DAT): 54.4
- CHEAL Germination (%) Mean ([4]; 5000 mg a.i./L, 10 DAT): 56.7%
- CHEAL Visual notation Mean ([4]; 5000 mg a.i./L, 10 DAT): 76.5
- LOLMU Germination (%) Mean ([5]; 50 mg a.i./L, 10 DAT): 95.6%
- LOLMU Visual notation Mean ([5]; 50 mg a.i./L, 10 DAT): 18.4
- LOLMU Germination (%) Mean ([5]; 500 mg a.i./L, 10 DAT): 95.6%
- LOLMU Visual notation Mean ([5]; 500 mg a.i./L, 10 DAT): 31.8
- LOLMU Germination (%) Mean ([5]; 5000 mg a.i./L, 10 DAT): 95.6%
- LOLMU Visual notation Mean ([5]; 5000 mg a.i./L, 10 DAT): 54.0

SMILES: Nc1ccc([N+](=O)[O-])cc1C(=O)O [Compound 7, 2-Amino-5-nitrobenzoic acid]
- % bacterial growth relative to rescue with mutant EPSPS at 20 mM, 40 h post application [1]: −260%
- ability of rescued AB2829 bacteria cells (EPSPS TIPS) to grow on M9 minimal media ([1]; 20 mM, 40 h, 0.1% rhamnose): completely abolish

SMILES: O=C(O)c1cc(C(F)(F)F)cc([N+](=O)[O-])c1F [Compound 16, 2-Fluoro-3-nitro-5-(trifluoromethyl)benzoic acid]
- % bacterial growth relative to rescue with mutant EPSPS at 20 mM, 40 h post application [1]: −56%
- ability of rescued AB2829 bacteria cells (EPSPS TIPS) to grow on M9 minimal media ([1]; 20 mM, 40 h, 0.1% rhamnose): completely abolish
